Measurements from ChEMBL document CHEMBL2057202, “Investigation of substituted 6-aminohexanoates as skin penetration enhancers” (Bioorg Med Chem, 2012).

Assays:
[1] = Lipophilicity, log K of the compound by RP-HPLC analysis; assay type: physicochemical
SK-N-MC = assay: Antiproliferative activity against human SK-N-MC cells after 72 hrs by MTT assay; assay type: cell-based
[2] = Potentiation of theophylline transdermal permeation in pig ear skin assessed as enhancement ratio at 20 mg after 24 hrs by Franz diffusion cell method; assay type: ADME, Sus scrofa

| Structure (SMILES) | log K [1] | IC50 (SK-N-MC) | Ratio [2] |
| --- | --- | --- | --- |
| CCCCCCCCCCOC(=O)C(CCCCN1C(=O)CCC1=O)N1CCCCCC1=O (stereo unspecified) | 0.6158 | > 6.25 µM |  |
| CCCCCCCCCCCCOC(=O)C(CCCCN1C(=O)CCC1=O)N1CCCCCC1=O (stereo unspecified) | 0.9081 | > 6.25 µM | 2.48 |
| CCCCCCCOC(=O)C(CCCCN1C(=O)CCC1=O)N1CCCCCC1=O (stereo unspecified) | 0.0658 | > 6.25 µM |  |
| CCCCCCOC(=O)C(CCCCN1C(=O)CCC1=O)N1CCCCCC1=O (stereo unspecified) | -0.0764 | > 6.25 µM | 1.93 |
| CCCCCCCCCCCCOC(=O)CCCCCN1C(=O)CCC1=O | 1.0091 | > 6.25 µM | 2.93 |
| CCCCCCCCCCCOC(=O)CCCCCN1C(=O)CCC1=O | 0.8368 | > 6.25 µM | 3.51 |
| CCCCCCCCCCCOC(=O)C(CCCCN1C(=O)CCC1=O)N1CCCCCC1=O (stereo unspecified) | 0.7462 | > 6.25 µM | 1.81 |
| CCCCCCCCCOC(=O)C(CCCCN1C(=O)CCC1=O)N1CCCCCC1=O (stereo unspecified) | 0.4095 | > 6.25 µM | 1.87 |
| CCCCCCCC/C=C\CCCCCCCC(=O)O [OLEIC ACID] |  |  | 1.13 |
| CCCCCCCCOC(=O)C(CCCCN1C(=O)CCC1=O)N1CCCCCC1=O (stereo unspecified) | 0.2462 | > 6.25 µM | 2.24 |

Now from value to compound:

| log K [1] | IC50 (SK-N-MC) | Ratio [2] | Structure (SMILES) |
| --- | --- | --- | --- |
| 0.6548 | > 6.25 µM | 3.54 | CCCCCCCCCCOC(=O)CCCCCN1C(=O)CCC1=O |
| -0.0201 | > 6.25 µM | 2.71 | CCCCCCOC(=O)CCCCCN1C(=O)CCC1=O |
| 0.4901 | > 6.25 µM | 3.14 | CCCCCCCCCOC(=O)CCCCCN1C(=O)CCC1=O |
| 0.15 | > 6.25 µM | 2.64 | CCCCCCCOC(=O)CCCCCN1C(=O)CCC1=O |
| 0.3239 | > 6.25 µM | 2.55 | CCCCCCCCOC(=O)CCCCCN1C(=O)CCC1=O |
